Assay results as given in ChEMBL document CHEMBL1201862, “PubChem BioAssay data set” (2004).
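Where inhibition never reached the appropriate level, the endpoint shown equals the highest concentration tested. Otherwise, values were interpolated linearly from a five-concentration, 48-hour dose response in 96-well plates. Here, GI50 denotes the concentration required for 50% inhibition of growth.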 Activity calls are given as the source filed them. Cut-off read from the data, not from the text of the source: active = GI50 up to about 1.1 µM and inactive = higher.

Tests used:
Assay in all cases: NCI anticancer screen, dose series, 48 h
CCRF-CEM = tested on: CCRF-CEM
OVCAR-8 = tested on: OVCAR-8
K562 = tested on: K562
SNB-19 = tested on: SNB-19
EKVX = tested on: EKVX
SW-620 = tested on: SW-620
Malme-3M = tested on: Malme-3M
LOX IMVI = tested on: LOX IMVI
MOLT-4 = tested on: MOLT-4
HL-60 = tested on: HL-60
RXF 393 = tested on: RXF 393
SK-MEL-28 = tested on: SK-MEL-28
ACHN = tested on: ACHN
SF-539 = tested on: SF-539
OVCAR-4 = tested on: OVCAR-4
IGROV-1 = tested on: IGROV-1
HCT-116 = tested on: HCT-116
HT-29 = tested on: HT-29
UO-31 = tested on: UO-31
RPMI-8226 = tested on: RPMI-8226

Measured: GI50

N#C/N=N/c1cc(Cl)c(/N=N/C#N)cc1Cl
inactive: CCRF-CEM 19.8 µM | OVCAR-8 > 100 µM | K562 27.1 µM | SNB-19 > 100 µM | EKVX > 100 µM | SW-620 35.3 µM | Malme-3M > 100 µM | LOX IMVI 38.6 µM | MOLT-4 40.9 µM | HL-60 34.7 µM | RXF 393 > 100 µM | SK-MEL-28 > 100 µM | ACHN > 100 µM | SF-539 > 100 µM | OVCAR-4 47 µM | IGROV-1 > 100 µM | HCT-116 > 100 µM | HT-29 > 100 µM

COc1cc(C2C(C(=O)O)=C(CO)Oc3cc4c(cc32)OCO4)cc(OC)c1O (stereo unspecified)
inactive: CCRF-CEM > 100 µM | OVCAR-8 > 100 µM | K562 > 100 µM | SNB-19 > 100 µM | UO-31 > 100 µM | EKVX > 100 µM | SW-620 > 100 µM | Malme-3M > 100 µM | LOX IMVI > 100 µM | MOLT-4 > 100 µM | HL-60 > 100 µM | SK-MEL-28 > 100 µM | ACHN > 100 µM | SF-539 > 100 µM | OVCAR-4 > 100 µM | IGROV-1 > 100 µM | RPMI-8226 > 100 µM | HCT-116 > 100 µM | HT-29 > 100 µM

CN(/N=C1\C(=O)Nc2ccccc21)c1ccccc1
inactive: CCRF-CEM 58.7 µM | OVCAR-8 26.4 µM | K562 > 100 µM | SNB-19 > 100 µM | UO-31 11.8 µM | EKVX 29.8 µM | SW-620 > 100 µM | Malme-3M 31.9 µM | LOX IMVI > 100 µM | MOLT-4 45.2 µM | HL-60 56.5 µM | SK-MEL-28 > 100 µM | ACHN 77.6 µM | SF-539 41.2 µM | OVCAR-4 95.3 µM | IGROV-1 36.6 µM | RPMI-8226 74.3 µM | HCT-116 57.8 µM | HT-29 54.3 µM

COc1ccc2nc3cc(Cl)ccc3c(Sc3ccc(N)cc3)c2c1
inactive: CCRF-CEM 3.81 µM | OVCAR-8 11 µM | K562 3.42 µM | SNB-19 16.9 µM | UO-31 10.8 µM | EKVX 11.7 µM | SW-620 3.77 µM | Malme-3M 15 µM | LOX IMVI 7.6 µM | MOLT-4 2.56 µM | RXF 393 11.7 µM | SK-MEL-28 14.9 µM | ACHN 10.1 µM | SF-539 13.9 µM | OVCAR-4 15.5 µM | IGROV-1 16.1 µM | HCT-116 4.78 µM

CN(C)C(=S)/N=c1\ssc(=S)n1C
inactive: CCRF-CEM > 100 µM | OVCAR-8 > 100 µM | K562 > 100 µM | SNB-19 > 100 µM | UO-31 > 100 µM | EKVX > 100 µM | SW-620 > 100 µM | Malme-3M > 100 µM | MOLT-4 > 100 µM | HL-60 > 100 µM | RXF 393 > 100 µM | SK-MEL-28 > 100 µM | ACHN > 100 µM | SF-539 > 100 µM | OVCAR-4 > 100 µM | IGROV-1 > 100 µM | RPMI-8226 > 100 µM | HCT-116 > 100 µM | HT-29 > 100 µM

CN(C)CCNC(=O)c1cccc2ccc(-c3ccc(F)cc3)nc12
inactive: CCRF-CEM 2.86 µM | OVCAR-8 3.3 µM | K562 2.93 µM | SNB-19 6.87 µM | UO-31 2.61 µM | SW-620 3.08 µM | Malme-3M 4.9 µM | LOX IMVI 3.32 µM | MOLT-4 1.94 µM | HL-60 2.29 µM | RXF 393 7.38 µM | SK-MEL-28 7.06 µM | SF-539 4.06 µM | OVCAR-4 4.38 µM | IGROV-1 4.16 µM | RPMI-8226 3.31 µM | HCT-116 3.03 µM | HT-29 3.3 µM

CC1(C)OP23(NC(=O)OC2(C(F)(F)F)c2ccccc2O3)OC1(C)C (stereo unspecified)
inactive: CCRF-CEM > 100 µM | OVCAR-8 > 100 µM | K562 > 100 µM | SNB-19 > 100 µM | UO-31 > 100 µM | Malme-3M > 100 µM | LOX IMVI > 100 µM | MOLT-4 > 100 µM | HL-60 > 100 µM | RXF 393 > 100 µM | SK-MEL-28 > 100 µM | ACHN > 100 µM | SF-539 > 100 µM | OVCAR-4 > 100 µM | HCT-116 > 100 µM | HT-29 > 100 µM

N#Cc1c(=O)c2cccnc2n2c1[nH]c1ccccc12
inactive: CCRF-CEM > 100 µM | OVCAR-8 66.7 µM | K562 > 100 µM | SNB-19 57.7 µM | UO-31 48.6 µM | EKVX 85.9 µM | SW-620 > 100 µM | LOX IMVI > 100 µM | MOLT-4 > 100 µM | HL-60 > 100 µM | RXF 393 74.1 µM | SK-MEL-28 > 100 µM | ACHN 42.1 µM | SF-539 55.8 µM | OVCAR-4 > 100 µM | IGROV-1 > 100 µM | RPMI-8226 > 100 µM | HCT-116 91.4 µM | HT-29 > 100 µM

CCCNC(=S)N/C=C1/C(=O)Oc2ccccc2C1=O
inactive: CCRF-CEM > 100 µM | OVCAR-8 > 100 µM | SNB-19 > 100 µM | UO-31 28.4 µM | EKVX > 100 µM | SW-620 > 100 µM | Malme-3M 63.7 µM | LOX IMVI > 100 µM | MOLT-4 > 100 µM | HL-60 13.6 µM | RXF 393 60.4 µM | SK-MEL-28 > 100 µM | ACHN 94.8 µM | SF-539 > 100 µM | OVCAR-4 > 100 µM | IGROV-1 89.9 µM | HCT-116 > 100 µM | HT-29 > 100 µM

CC(=O)Oc1ccccc1C(=O)Nc1ncc([N+](=O)[O-])s1 [NITAZOXANIDE]
inactive: OVCAR-8 15.7 µM | K562 55.7 µM | SNB-19 17.9 µM | UO-31 26 µM | EKVX 21 µM | SW-620 33.1 µM | Malme-3M 11.1 µM | LOX IMVI 21.8 µM | MOLT-4 > 100 µM | RXF 393 4.42 µM | SK-MEL-28 11.6 µM | ACHN 20.4 µM | SF-539 24.8 µM | OVCAR-4 28.7 µM | IGROV-1 16.3 µM | RPMI-8226 10.3 µM | HCT-116 11.2 µM | HT-29 15.5 µM

ClCC1(CCl)COC1
inactive: CCRF-CEM > 100 µM | OVCAR-8 > 100 µM | K562 > 100 µM | SNB-19 > 100 µM | UO-31 > 100 µM | SW-620 > 100 µM | LOX IMVI > 100 µM | MOLT-4 > 100 µM | HL-60 > 100 µM | RXF 393 > 100 µM | SK-MEL-28 > 100 µM | ACHN > 100 µM | OVCAR-4 > 100 µM | HCT-116 > 100 µM | HT-29 > 100 µM
